The text below walks through data of patent EP3057950B1, “PHENYL LINKED QUINOLINYL MODULATORS OF ROR-GAMMA-T” (Janssen Pharmaceutica NV, priority 2013, dated 2015).

Structures can show the parent of a compound that is named as a salt. Where only a bound is given, the exact number is not on record here.

The target in assay [1] is T1, wild type human RORγt ligand binding domain (RORγt LBD) (Homo sapiens, UniProt P51449).
T1 construct: His-tag (N); TurboTEV protease cleavage site (ENLYFQG) (N); made in house; host or cells: E. coli (pHIS1, modified pET expression vector)
T1 sequence (P51449 269-508 limits assumed): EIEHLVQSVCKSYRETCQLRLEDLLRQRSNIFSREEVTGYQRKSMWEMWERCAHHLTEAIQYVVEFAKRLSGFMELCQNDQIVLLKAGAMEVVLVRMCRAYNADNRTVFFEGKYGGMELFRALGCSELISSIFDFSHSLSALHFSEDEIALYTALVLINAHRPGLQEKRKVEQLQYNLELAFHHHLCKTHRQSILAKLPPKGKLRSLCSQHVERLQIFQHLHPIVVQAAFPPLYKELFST
The experiment in a line: RORγt ThermoFluor® Assay (thermal shift, binding affinity). Particulars: pH 7.0, estimated from concentration response curves. How it is done:
This approach is applicable to a wide variety of systems, and rigorous in theoretical interpretation through quantitation of equilibrium binding constants (KD).
The shift in the melting point described as a ΔTm is proportional to the concentration and affinity of the ligand.
Protein and compound solutions are dispensed into black 384-well polypropylene PCR microplates (Abgene) and overlayed with silicone oil (1 µL, Fluka, type DC 200) to prevent evaporation.
Bar-coded assay plates are robotically loaded onto a thermostatically controlled PCR-type thermal block and then heated at a typical ramp-rate of 1 °C/min for all experiments. Fluorescence was measured by continuous illumination with UV light (Hamamatsu LC6) supplied via fiber optic and filtered through a band-pass filter (380-400 nm; >6 OD cutoff). Fluorescence emission of the entire 384-well plate was detected by measuring light intensity using a CCD camera (Sensys, Roper Scientific) filtered to detect 500 ± 25 nm, resulting in simultaneous and independent readings of all 384 wells. Images were collected at each temperature, and the sum of the pixel intensity in a given area of the assay plate was recorded versus temperature. Reference wells contained RORγt without compounds, and the assay conditions were as follows: • 0.065 mg/mL RORγt • 60 µM 1,8-ANS • 100 mM Hepes, pH 7.0 • 10 mM NaCl • 2.5 mM GSH • 0.002% Tween-20
Project compounds were arranged in a pre-dosed mother plate (Greiner Bio-one) wherein compounds are serially diluted in 100% DMSO by 1:2 from a high concentration of 10 mM over 12 columns within a series (column 12 is a reference well containing DMSO, no compound). The compounds were robotically dispensed directly into assay plates (1x = 46 nL) using a Hummingbird capillary liquid handling instrument (Digilab). Following compound dispense, protein and dye in buffer was added to achieve the final assay volume of 3 µL, followed by 1 µL of silicone oil.

In assay [2] the target is T2, wild type human RORγt LBD (Homo sapiens, UniProt P51449).
T2 construct: expressed in transfected cells; host or cells: HEK293T
T2 sequence (P51449 269-508 limits assumed): T1 sequence (P51449 269-508 limits assumed)
The experiment in a line: RORγt Reporter Assay (GAL4-RORγt LBD luciferase in HEK293T cells). In kind it is cell-based. Particulars: HEK293T cells; for IC50: compounds for 24 hours, read-out: RORγt reporter Assay, IC50; for inhibition at 6 µM: HEK-293T, read-out: RORγt reporter Assay, % inhibition @ 6 µM, @ 6 µM. An excerpt: A reporter assay was used to test functional activity of RORγt modulatory compounds on transcriptional activation driven by the RORγt LBD. Cells used in the assay were co-transfected with two constructs. The first construct, pBIND-RORγt LBD, contained the wild type human RORγt LBD fused to the DNA binding domain of the GAL4 protein. The second construct, pGL4.31 (Promega Cat no. C935A), contained multiple GAL4 responsive DNA elements upstream of firefly luciferase. […] The mutant construct was called pBIND-RORγt-AF2.
The pBIND vector contains the GAL4 DNA Binding Domain (GAL4 DBD) and the renilla luciferase gene under control of the SV40 promoter. Renilla luciferase expression serves as a control for transfection efficiency and cell viability.
The reporter assay was performed by transiently transfecting HEK293T cells with 5 µg of pBIND-RORγt LBD or pBIND-RORγt LBD-AF2 and 5 µg pGL4.31 (Promega Cat no. C935A) using Fugene 6 (Invitrogen Cat no. E2691) at a 1:6 ratio of DNA: Fugene 6 in a T-75 flask in which cells were at least 80% confluent. Twenty four hours after bulk transfection, cells were plated into 96-well plates at 50,000 cells/well in phenol-red free DMEM containing 5% Lipid Reduced FCS and Pen/Strep. Six hours after plating, cells were treated with compounds for 24 hours. Media was removed and cells were lysed with 50 µL 1x Glo Lysis Buffer (Promega). Dual Glo Luciferase Reagent (50 µL/well) was then added and firefly luciferase luminescence was read on an Envision after a ten minute incubation. Finally, Stop and Glo reagent (50 µL/well) was added and renilla luciferase luminescence was read on an Envision instrument after a ten minute incubation. To calculate the effect of compounds on RORγt activity, the ratio of firefly to renilla luciferase was determined and plotted against compound concentration. Agonist compounds increase RORγt-driven luciferase expression, and antagonist or inverse agonist compounds decrease luciferase expression.
A general note: Reporter assays use an easily measured gene product as a stand-in for the process of interest.

One may read the Kd as the equilibrium constant for the complex coming apart. For orientation: IC50 means the concentration needed to halve the response being measured. In the case of `Cn1cncc1C(O)(c1ccc2nc(C#N)c(-c3ccccc3)c(C#N)c2c1)c1ccccn1` (single isomer, unassigned) [Example 18b, 6-(Hydroxy(1-methyl-1H-imidazol-5-yl)(pyridin-2-yl)methyl)-3-phenylquinoline-2,4-dicarbonitrile], in assay [1], the Kd was 14 µM. In addition, in assay [2], the “RORγt reporter Assay, % inhibition @ 6 µM” value worked out at 40% and the half-inhibitory concentration (IC50) is over 6 µM.
For `Cn1cncc1C(O)(c1ccc2nc(C#N)c(-c3ccccc3)c(C#N)c2c1)c1ccccn1` (single isomer, unassigned) [Example 18c, 6-(Hydroxy(1-methyl-1H-imidazol-5-yl)(pyridin-2-yl)methyl)-3-phenylquinoline-2,4-dicarbonitrile], in that order: 0.33 µM, 95% and 0.85 µM.
For `COc1nc2c(C)cc(C(O)(c3ccc(C(F)(F)F)nc3)c3cncn3C)cc2c(C#N)c1-c1ccc(OC(F)(F)F)cc1` (single isomer, unassigned) [Example 19c, 6-(Hydroxy(1-methyl-1H-imidazol-5-yl)(6-(trifluoromethyl)pyridin-3-yl)methyl)-2-methoxy-8-methyl-3-(4-(trifluoromethoxy)phenyl)quinoline-4-carbonitrile], in that order: 0.017 µM, 35% and over 6 µM.
A word on the inhibition: it is the relative decrease from the control value, in per cent. Consider `CC(=O)N1CCC(C(O)(c2ccccc2)c2cc(C)c3nc(C#N)c(-c4ccccc4)c(C#N)c3c2)CC1` (single isomer, unassigned) [Example 21b, 6-((1-Acetylpiperidin-4-yl)(hydroxy)(phenyl)methyl)-8-methyl-3-phenylquinoline-2,4-dicarbonitrile], for which the equilibrium dissociation constant (Kd) in assay [1] is 1.3 µM. In assay [2], the half-inhibitory concentration (IC50) was 1.6 µM and the inhibition at 6 µM turned out to be 87%.
For `Cc1cc(C(O)(c2ccc(Cl)cc2)c2cncn2C)cc2c(C#N)c(-c3ccccc3)c(C#N)nc12` (single isomer, unassigned) [Example 23b, 6-((4-Chlorophenyl)(hydroxy)(1-methyl-1H-imidazol-5-yl)methyl)-8-methyl-3-phenylquinoline-2,4-dicarbonitrile], the Kd in assay [1] is 15 µM. Moreover, in assay [2], the “RORγt reporter Assay, % inhibition @ 6 µM” value was found to be 60% and the IC50 is about 4 µM.
Regarding `Cc1cc(C(O)(c2ccc(C(F)(F)F)nc2)c2cncn2C)cc2c(C#N)c(-c3ccccc3)c(C#N)nc12` (single isomer, unassigned) [Example 25b, 6-(Hydroxy(1-methyl-1H-imidazol-5-yl)(6-(trifluoromethyl)pyridin-3-yl)methyl)-8-methyl-3-phenylquinoline-2,4-dicarbonitrile], the Kd in assay [1] was 3.5 µM. In addition, in assay [2], the concentration for half-maximal inhibition (IC50) was about 2 µM and the inhibition at 6 µM was determined as 87%.
`CC(=O)N1CCC(C(O)(c2ccc(C(F)(F)F)nc2)c2cc(C)c3nc(C#N)c(-c4ccccc4)c(C#N)c3c2)CC1` (single isomer, unassigned) [Example 27b, 6-((1-Acetylpiperidin-4-yl)(hydroxy)(6-(trifluoromethyl)pyridin-3-yl)methyl)-8-methyl-3-phenylquinoline-2,4-dicarbonitrile]: the Kd in assay [1] was 15 µM. For the same compound, in assay [2], the 50% inhibitory concentration (IC50) is about 4 µM and the inhibition at 6 µM was 80%.
With `CC(=O)N1CCC(C(O)(c2ccc(C(F)(F)F)nc2)c2cc(C)c3nc(C#N)c(-c4ccccc4)c(C#N)c3c2)CC1` (single isomer, unassigned) [Example 27c, 6-((1-Acetylpiperidin-4-yl)(hydroxy)(6-(trifluoromethyl)pyridin-3-yl)methyl)-8-methyl-3-phenylquinoline-2,4-dicarbonitrile], the dissociation constant Kd in assay [1] was 0.82 µM. Moreover, in assay [2], the “RORγt reporter Assay, % inhibition @ 6 µM” value was found to be 96% and the IC50 came to 2.1 µM.
Consider `COc1c(-c2ccccc2)c(C(F)(F)F)nc2ccc(C(O)(c3ccccn3)c3cncn3C)cc12` (single isomer, unassigned) [Example 32b, (4-Methoxy-3-phenyl-2-(trifluoromethyl)quinolin-6-yl)(1-methyl-1H-imidazol-5-yl)(pyridin-2-yl)methanol], for which the Kd in assay [1] was 0.77 µM. For the same compound, in assay [2], the IC50 worked out at 1.2 µM and the inhibition at 6 µM was determined as 92%.
Consider `COc1c(-c2ccccc2)c(C(F)(F)F)nc2ccc(C(O)(c3ccc(Cl)cc3)c3cncn3C)cc12` (single isomer, unassigned) [Example 33b, (4-Chlorophenyl)(4-methoxy-3-phenyl-2-(trifluoromethyl)quinolin-6-yl)(1-methyl-1H-imidazol-5-yl)methanol], for which the dissociation constant (Kd) in assay [1] was 13 µM. In assay [2], the “RORγt reporter Assay, % inhibition @ 6 µM” value worked out at 64% and the IC50 is about 4 µM.
`CC(=O)N1CCC(C(O)(c2ccc3nc(C(F)(F)F)c(-c4ccccc4)c(Cl)c3c2)c2cncn2C)CC1` (single isomer, unassigned) [Example 34b, 1-(4-((4-Chloro-3-phenyl-2-(trifluoromethyl)quinolin-6-yl)(hydroxy)(1-methyl-1H-imidazol-5-yl)methyl)piperidin-1-yl)ethanone]: the Kd in assay [1] was 0.45 µM. In assay [2], the concentration for half-maximal inhibition (IC50) came out at 1 µM and the inhibition at 6 µM came out at 90%.
`COc1c(-c2ccccc2)c(Cl)nc2ccc(C(O)(c3cnnn3C)c3cnc(C)n3C)cc12` (single isomer, unassigned) [Example 40b, (2-Chloro-4-metboxy-3-phenylquinolin-6-yl)(1,2-dimethyl-1H-imidazol-5-yl)(1-methyl-1H-1,2,3-triazol-5-yl)methanol]: the inhibition at 6 µM in assay [2] came to 97%.
As to `COCCN(C)c1nc2ccc(C(O)(c3ccc(C(F)(F)F)nc3)c3cncn3C)cc2c(Cl)c1-c1ccccc1` (centres unmarked) [Example 53, {4-Chloro-2-[(2-methoxyethyl)(methyl)amino]-3-phenylquinolin-6-yl}(1-methyl-1H-imidazol-5-yl)[6-(trifluoromethyl)pyridin-3-yl]methanol], in assay [1], the equilibrium dissociation constant (Kd) was 0.0072 µM.
For `CON(C)c1nc2ccc(C(O)(c3ccc(Cl)cc3)c3cncn3C)cc2c(N(C)OC)c1-c1ccccc1` (centres unmarked) [Example 59, {2,4-Bis[methoxy(methyl)amino]-3-phenylquinolin-6-yl}(4-chlorophenyl)(1-methyl-1H-imidazol-5-yl)methanol], the inhibition at 6 µM in assay [2] stood at 98%.
With `CC(C)Oc1nc2ccc(C(O)(c3cccnc3)c3cccc(Cl)c3)cc2cc1-c1ccccc1` (centres unmarked) [Example 79, (3-Chlorophenyl)(2-isopropoxy-3-phenylquinolin-6-yl)(pyridin-3-yl)methanol•TFA], in assay [1], the Kd is 17 µM.
The same measure, in the same setting: the result for `CCOc1nc2ccc(C(O)(c3cccnc3)c3cccc(Cl)c3)cc2c(OCC)c1-c1ccccc1` (centres unmarked) [Example 81, (3-Chlorophenyl)(2,4-diethoxy-3-phenylquinolin-6-yl)(pyridin-3-yl)methanol•TFA] reads 14 µM.
